The target in this assay is T1, eIF4AI (Homo sapiens, UniProt P60842).
T1 construct: gene EIF4A1
The assay can be described thus: synchronous fluorescence quenching, eIF4A […] with Cry […]. The assay is classed as binding.

Experimental findings from article PMC12027730, “Lapatinib-Resistant HER2+ Breast Cancer Cells Are Associated with Dysregulation of MAPK and p70S6K/PDCD4 Pathways and Calcium Management, Influence of Cryptotanshinone” (International Journal of Molecular Sciences, 2025) are described below.

T1 sequence (P60842 2-406): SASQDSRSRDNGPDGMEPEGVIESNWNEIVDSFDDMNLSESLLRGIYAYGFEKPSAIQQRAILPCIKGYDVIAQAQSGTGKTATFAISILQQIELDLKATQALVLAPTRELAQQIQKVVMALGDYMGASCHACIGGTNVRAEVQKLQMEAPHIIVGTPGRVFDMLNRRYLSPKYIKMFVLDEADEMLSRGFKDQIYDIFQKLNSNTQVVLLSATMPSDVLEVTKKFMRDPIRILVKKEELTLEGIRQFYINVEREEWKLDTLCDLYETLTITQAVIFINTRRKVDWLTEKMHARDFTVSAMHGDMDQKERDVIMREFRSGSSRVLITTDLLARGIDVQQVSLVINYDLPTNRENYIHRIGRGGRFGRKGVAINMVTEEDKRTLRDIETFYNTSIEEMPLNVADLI

For the compound `C[C@H]1COC2=C1C(=O)C(=O)c1c2ccc2c1CCCC2(C)C` [Cry, Cryptotanshinone], the “synchronous fluorescence quenching, eIF4A 12 μM with Cry 0-50 μM” value is “A Cry dose-dependent fluorescence emission decrease in eIF4A associated with the induction of the quenching phenomena was observed”.
